Data set [1] deals with multiparous gravid ewes. Put plainly: hGRF (1-29) on completion of two-thirds and/or at end of gestation in ewes: birth weight and growth of lambs. The data set is classed as in vivo. The conditions noted are these: for Weight of the Lambs at 30 days: control 12.12 ± 0.7 kg. On the procedure: 48 multiparous gravid ewes were distributed in four batches of 12 ewes each, account being taken of the earlier milk productions and of the anticipated parity (OCS--Ovine Chorionic Somatotropin--assay). The first batch forms the control batch, the ewes receiving no treatment. The other three batches receive 1.5 mg of hGRF (1-29) subcutaneously twice daily; from day 105 to day 115 of gestation for the second batch, which will be designated hereinafter as batch "GRF1"; from day 137 of gestation to littering for the third batch, which will be designated hereinafter as batch "GRF2"; and from day 105 to day 115 of gestation and from day 137 of gestation to littering for the fourth batch, which will be designated hereinafter as batch "GRF1+2". As in the above study, the administration of hGRF (1-29) is stopped as soon as parturition takes place, and lambing is induced by the administration of dexamethasone on day 145 of gestation, under the conditions described above. After parturition, the milk production of the ewes was measured twice daily, and the growth of the lambs, which received an artificial milk-feed supplied "ad libitum", was followed, the lambs receiving no growth adjuvant treatment. The analysis concerned only twin lambs, distributed as follows: At the age of 30 days, after variance analysis taking birth weight as covariable, a larger growth of all the lambs born of the mothers of batch GRF2 was observed. This is shown in FIG. 3, which is an illustration similar to that of FIG. 4, enabling the weights of the lambs born of the mothers of the four batches to be compared at the age of 30 days. Table 1 below complements this FIG. 3.

The subject of data set [2] is gravid ewes. It counts as in vivo. On the procedure:
(§1) 30 gravid ewes which were at the 135th day of gestation were distributed in two batches of 15 ewes each, account being taken of the number of fetuses assumed to be present in the uteri and of the earlier milk outputs, all the ewes being multiparous. Batch A, which receives no treatment, serves as control batch. Batch B receives 1.5 mg of hGRF (1-29) (equivalent to approximately 20 μg per kg of body weight) subcutaneously twice daily, at 8.00 hours and 14.00 hours, from day 137 of gestation up to the day of littering (which varied between day 145 and day 147, depending on the ewe). The administration of hGRF (1-29) is stopped as soon as parturition takes place. In all the animals, lambing is induced by the administration of 9 α-fluoro-11β,17α,21-trihydroxy-16α-methyl-1,4-pregnadiene-3,20-dione (proposed under the INN of dexamethasone) on the basis of 16 mg intramuscularly at 20.00 hours on day 144 of gestation. The birth weights of the lambs born of mothers of the two batches A and B were compared.

For data set [3], the system named is multiparous gravid ewes. Put plainly: hGRF (1-29) on completion of two-thirds and/or at end of gestation in ewes: milk production. The data set is classed as in vivo. On the procedure: 48 multiparous gravid ewes were distributed in four batches of 12 ewes each, account being taken of the earlier milk productions and of the anticipated parity (OCS--Ovine Chorionic Somatotropin--assay). The first batch forms the control batch, the ewes receiving no treatment. The other three batches receive 1.5 mg of hGRF (1-29) subcutaneously twice daily; from day 105 to day 115 of gestation for the second batch, which will be designated hereinafter as batch "GRF1"; from day 137 of gestation to littering for the third batch, which will be designated hereinafter as batch "GRF2"; and from day 105 to day 115 of gestation and from day 137 of gestation to littering for the fourth batch, which will be designated hereinafter as batch "GRF1+2". As in the above study, the administration of hGRF (1-29) is stopped as soon as parturition takes place, and lambing is induced by the administration of dexamethasone on day 145 of gestation, under the conditions described above. After parturition, the milk production of the ewes was measured twice daily, and the growth of the lambs, which received an artificial milk-feed supplied "ad libitum", was followed, the lambs receiving no growth adjuvant treatment. After a variance analysis, taking the earlier production as covariable, and after correction taking into account the parity (number of lambs per pregnancy) during the lactation in progress and during the reference lactation, the results for the milk production were compared between the control batches and batches "GRF1" and "GRF2". From the results obtained over five weeks of lactation, the curves of FIGS. 4 and 5 were plotted, the source data being reported in Table 2 below.

Data set [4] relates to gravid ewes. In words: OGH (growth hormone) assay in gravid ewes given hGRF (1-29) at the end of gestation. The data set is classed as in vivo. The conditions noted are these: batch B. On the procedure:
as §1, with “[…] This discharge is the same in nature after the morning injection and after that” for “The birth weights”, “afternoon. […] This is shown in FIG. 1” for “lambs born of mothers”, “attached drawings, which represents the OGH hormone assay in terms of the time of day (mean over 15 ewes) on day 138” for “two batches A”, “on day 146 of gestation.” for “B were compared.”

Another data set deals with dairy cows. The conditions noted are these: cited from earlier work; for milk production increased: milk adjusted to fat content 3.5%.
Where [5] appears, read: 1.5 mg s.c. twice daily from day 137 of gestation to littering.

“Also recorded” adds a separate entry of the source. Where two headings read alike, the source gives them in different places.

For the molecule “hGRF (1-29): form of human growth hormone releasing factor containing 29 amino acids, obtained after deletion of the C-terminal portion”, the “Weight of the Lambs at 30 days” value with multiparous gravid ewes [1] (batch GRF1+2: day 105 to 115 and day 137 to littering, 10 lambs) came out at 13 ± 0.66 kg; with multiparous gravid ewes [1] (batch GRF1: day 105 to 115 of gestation, 14 lambs) it was 13.6 ± 0.5 kg; in the data set with multiparous gravid ewes [1] (batch GRF2: day 137 to littering, 12 lambs), 14.73 ± 0.53 kg. Besides, the “birth weight of the lambs versus control” value in the data set on multiparous gravid ewes [1] (batch GRF1+2: day 105 to 115 and day 137 to littering, twin lambs n=12) is recorded as “substantially similar”; in the data set with multiparous gravid ewes [1] (batch GRF1: day 105 to day 115 of gestation, twin lambs n=16), “substantially similar; also recorded: of the same order”. The “mean birth weight of the lambs” value in the data set on multiparous gravid ewes [1] (batch GRF2: day 137 of gestation to littering, twin lambs n=12, control 2.91 kg) is recorded as 3.54 kg. Moreover, in the data set with multiparous gravid ewes [1] (ewes treated between days 105 and 115 of gestation (GRF1)), the “excess of lamb growth at 30 days over lambs of control mothers” value is recorded as ~11%. Also, the “excess of lamb weight at 30 days over the controls” value in the data set on multiparous gravid ewes [1] (mothers treated between days 137 and 147 of gestation (GRF2), corrected for birth weight) amounted to 21%. The “birth weight of the lambs born of treated mothers” value in the data set with gravid ewes [2] (batch B, n=20, 1.5 mg s.c. twice daily day 137 to littering, control batch A 3.61±0.14 kg) came out at 4.17 ± 0.13 kg. Besides, the “effect on dates of the lambing (parturition)” value in the data set on gravid ewes [2] (in vivo) is given as “not modifying the dates of the lambing”. The “milk production greater than that of the control ewes” value with multiparous gravid ewes [3] (batch GRF1 (days 105 to 115 of gestation), fifth week of lactation) is “more than 23%”. Besides, the Milk production in the data set with multiparous gravid ewes [3] (batch GRF1, week of lactation 1, FIG. 4, control 980 ± 70) was found to be 1075 ± 50; with multiparous gravid ewes [3] (batch GRF1, week of lactation 2, FIG. 4, control 950 ± 60), 1090 ± 70; with multiparous gravid ewes [3] (batch GRF1, week of lactation 3, FIG. 4, control 845 ± 50), 1025 ± 60; in the data set with multiparous gravid ewes [3] (batch GRF1, week of lactation 4, FIG. 4, control 760 ± 45) it was 920 ± 60; in the data set with multiparous gravid ewes [3] (batch GRF1, week of lactation 5, FIG. 4, control 720 ± 50) it was 880 ± 50; in the data set with multiparous gravid ewes [3] (batch GRF2, week of lactation 1, FIG. 5, control 1020 ± 50), 1050 ± 60. In addition, the Milk production in the data set with multiparous gravid ewes [3] (batch GRF2, week of lactation 2, FIG. 5, control 1025 ± 60) is listed as 1010 ± 50; in the data set on multiparous gravid ewes [3] (batch GRF2, week of lactation 3, FIG. 5, control 975 ± 50), 855 ± 50; with multiparous gravid ewes [3] (batch GRF2, week of lactation 4, FIG. 5, control 925 ± 50), 840 ± 40; with multiparous gravid ewes [3] (batch GRF2, week of lactation 5, FIG. 5, control 860 ± 50), 745 ± 60. The “discharge of growth hormone (GH)” value with gravid ewes [4] (setting [5]) is listed as “of large magnitude”. Also, the “duration of the discharge of growth hormone after the subcutaneous injection” value with gravid ewes [4] (setting [5]) is listed as “approximately 5 hours”. Also, in the data set with gravid ewes [4] (mean over 15 ewes, FIG. 1), the “GH response, day 146 versus day 138 of gestation” value was “magnified as the term of the pregnancy is approached”.

B1: bGH: bovine growth hormone obtained by genetic recombination (protein, UniProt P01246 27-217, looked up)
Somatotropin: AFPAMSLSGLFANAVLRAQHLHQLAADTFKEFERTYIPEGQRYSIQNTQVAFCFSETIPAPTGKNEAQQKSDLELLRISLLLIQSWLGPLQFLSRVFTNSLVFGTSDRVYEKLKDLEEGILALMRELEDGTPRAGQILKQTYDKFDTNMRSDDALLKNYGLLSCFRKDLHKTETYLRVMKCRRFGEASCAF
As for B1, the milk production increased in the data set with dairy cows (12.5 mg bGH per day) is recorded as 16%; in the data set on dairy cows (25 mg bGH per day) it was 19%; with dairy cows (50 mg bGH per day) it was 22%. For the same molecule, the figures for the “nutritional efficiency (kg milk with 3.5% fat per kg dry matter ingested) increased” value in the data set on dairy cows (12.5 mg bGH/day for a long period), with dairy cows (25 mg bGH/day for a long period) and in the data set on dairy cows (50 mg bGH/day for a long period) were 13.8%, 16.8% and 15.3%, respectively.

The values are drawn from patent US5061690A, “Method for increasing milk production in mammals and/or increasing the birth weight of their newborn and improving postnatal growth” (Institut National de la Recherche Agronomique, priority 1987, dated 1991).
